Data from US20250262193A1, “Therapeutic Tyrosine Kinase Inhibitors For Multiple Sclerosis and Myasthenia Gravis” (Principia Biopharma Inc., priority 2022, published 2025).

Legend:
[1] = Drug interaction study INT16726: potent CYP2C8 inhibitor gemfibrozil; CYP3A4/CYP2C8 inducer rifampicin, healthy participants; assay type: in vivo, human
Experimental: (§1) Tolebrutinib is a substrate of the CYP3A4 and CYP2C8 isoenzymes. […] In healthy participants, the potent CYP3A4 and moderate CYP2C8 induction by rifampicin (600 mg once daily for 8 days) decreased tolebrutinib exposure by 6-fold. Therefore, potent and also moderate (based on prediction) CYP3A inducers are not permitted due to their potential to decrease tolebrutinib exposure and efficacy.
(§2) Potent and moderate inducers of CYP3A or potent inhibitors of CYP2C8 hepatic enzymes are not permitted throughout the study (see Appendix 8A [Section 10.8]). • Tolebrutinib: Tolebrutinib is a substrate of the CYP3A4 and CYP2C8 isoenzymes. […] In healthy participants, potent CYP3A4 and moderate CYP2C8 induction by rifampicin (600 mg once daily for 8 days) decreased Tolebrutinib exposure 6-fold (INT16726 study). Therefore, potent and also moderate (based on prediction) CYP3A inducers are not permitted due to their potential to decrease Tolebrutinib exposure and efficacy. See Table 2H for the list of drugs not to be used. • Teriflunomide: Other potent CYP and transporter inducers should be avoided due to their potential to decrease teriflunomide exposure. Rifampicin and other known potent CYP and transporter inducers such as carbamazepine, phenobarbital, phenytoin, avasimibe, lumacaftor, rifapentine, rifabutin, and St John's wort, should be avoided. […]

[2] = Study TDR16862: up to 240 mg once daily for 14 days under fed conditions, healthy participants; assay type: in vivo, human
Experimental: as §1, §2

[3] = Drug interaction study INT16385: potent CYP3A4 inhibitor itraconazole, healthy participants; assay type: in vivo, human; settings: with potent CYP3A4 inhibitor itraconazole 200 mg once daily for 4 days
[4] = Phase 2b dose-finding trial DRI15928 in participants with relapsing multiple sclerosis; assay type: in vivo, human; settings: for alanine aminotransferase (ALT): 1 participant, normal range 6 to 34 U/L; for time for ALT to return to normal range: treatment continued
Source text: All safety summaries will be descriptive; no statistical significance tests will be performed on safety data. This includes treatment-emergent adverse events (TEAEs) and other safety information (eg, clinical laboratory evaluations, electrocardiograms [ECGs], and vital signs). TEAEs are defined as adverse events (AEs) that developed or worsened or became serious during the treatment period. These analyses will be based on the safety population, defined as all participants randomly assigned and exposed to study intervention, regardless of the amount of exposure, analyzed according to the treatment actually received. • Two participants had treatment-emergent transient alanine aminotransferase (ALT) increase >3×ULN, 1 during the 30 mg SAR442168 treatment period (at Week 8, 105 U/L [normal range 6 to 34 U/L]) that returned to normal range within 4 days and 1 during the 60 mg SAR442168 treatment period (at Week 4, 107 U/L [normal range 6 to 34 U/L]). The participant in the 60 mg group had slightly elevated ALT at screening (48 U/L) and at baseline (50 U/L); ALT levels returned to the normal range in 8 weeks. Both participants continued study treatment during this period. All other liver enzyme levels for both participants were within normal ranges during the treatment period; one event was assessed as related and one as unrelated to the study drug by the Investigators. Both participants completed the DRI15928 study and successfully rolled over to the LTS follow-up study. • One event of mild petechia in a participant (at Week 8 in the SAR442168 30 mg group) and 2 events of mild microscopic hematuria in 2 male participants (1 event at Week 16 in the SAR442168 30 mg group and 1 event on Day 1 in the SAR442168 60 mg group, with occult blood noted in urine) were reported during the treatment period in the SAR442168 Phase 2b trial. The hematology results were clinically insignificant for all 3 participants from the onset of the events. The participant with mild petechia had benign pigmentary lesions noted during screening, and the event was assessed as related to the study drug by the Investigator. The 2 events of mild microscopic hematuria were assessed as unrelated to the study drug.
The choice of the dose of 60 mg of the BTK inhibitor taken with food is based on the results of a Phase 2b dose-finding trial for tolebrutinib in participants with relapsing multiple sclerosis (DRI15928). See for example, Reich, D. S., et al., Safety and efficacy of tolebrutinib, an oral brain-penetrant BTK inhibitor, in relapsing multiple sclerosis: a phase 2b, randomised, double-blind, placebo-controlled trial. Lancet Neurol, 2021. 20(9): p. 729-738.
There were low numbers of AESIs and PCSAs observed.

[5] = Ongoing Phase 3 and LTS studies: safety (drug-induced liver injury); assay type: in vivo, human
Source text: Drug-induced liver injury has been identified in the ongoing tolebrutinib Phase 3 trials. […] Thus, there is a need to mitigate the risk of hepatic injury and provide safe treatment for patients with MS or MG.
All safety summaries will be descriptive; no statistical significance tests will be performed on safety data. This includes treatment-emergent adverse events (TEAEs) and other safety information (eg, clinical laboratory evaluations, electrocardiograms [ECGs], and vital signs). TEAEs are defined as adverse events (AEs) that developed or worsened or became serious during the treatment period. These analyses will be based on the safety population, defined as all participants randomly assigned and exposed to study intervention, regardless of the amount of exposure, analyzed according to the treatment actually received. • Two participants had treatment-emergent transient alanine aminotransferase (ALT) increase >3×ULN, 1 during the 30 mg SAR442168 treatment period (at Week 8, 105 U/L [normal range 6 to 34 U/L]) that returned to normal range within 4 days and 1 during the 60 mg SAR442168 treatment period (at Week 4, 107 U/L [normal range 6 to 34 U/L]). […] All other liver enzyme levels for both participants were within normal ranges during the treatment period; one event was assessed as related and one as unrelated to the study drug by the Investigators. […]

CYP2C8 = biological target: T1, CYP2C8 (Homo sapiens, UniProt P10632); experiment: Nonclinical drug metabolism studies (CYP substrate); assay type: in vitro ADME
T1 sequence (P10632 1-490): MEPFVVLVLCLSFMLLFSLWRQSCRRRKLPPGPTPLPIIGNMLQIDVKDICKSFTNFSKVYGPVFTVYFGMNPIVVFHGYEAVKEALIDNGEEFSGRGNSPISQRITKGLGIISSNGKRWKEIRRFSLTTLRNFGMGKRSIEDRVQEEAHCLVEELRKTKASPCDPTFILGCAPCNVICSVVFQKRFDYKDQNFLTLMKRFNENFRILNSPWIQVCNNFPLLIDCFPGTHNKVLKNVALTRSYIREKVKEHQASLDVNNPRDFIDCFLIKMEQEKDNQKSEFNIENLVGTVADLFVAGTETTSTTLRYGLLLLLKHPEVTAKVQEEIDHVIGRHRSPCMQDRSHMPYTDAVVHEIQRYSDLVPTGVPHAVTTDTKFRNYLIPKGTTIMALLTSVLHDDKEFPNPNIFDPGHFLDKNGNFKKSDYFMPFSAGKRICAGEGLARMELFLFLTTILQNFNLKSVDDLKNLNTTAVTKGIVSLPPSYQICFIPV
Experimental: as §1, §2

CYP3A4 = CYP3A4 (Homo sapiens, UniProt P08684); experiment: as above; assay type: in vitro ADME
Experimental: as §1, §2

[6] = Blood-brain barrier crossing
[7] = following repeated doses of teriflunomide; cited from earlier work
BCRP = biological target: T2, BCRP (Homo sapiens, UniProt Q9UNQ0); settings: in vitro studies; cited from earlier work
T2 sequence (Q9UNQ0 1-655): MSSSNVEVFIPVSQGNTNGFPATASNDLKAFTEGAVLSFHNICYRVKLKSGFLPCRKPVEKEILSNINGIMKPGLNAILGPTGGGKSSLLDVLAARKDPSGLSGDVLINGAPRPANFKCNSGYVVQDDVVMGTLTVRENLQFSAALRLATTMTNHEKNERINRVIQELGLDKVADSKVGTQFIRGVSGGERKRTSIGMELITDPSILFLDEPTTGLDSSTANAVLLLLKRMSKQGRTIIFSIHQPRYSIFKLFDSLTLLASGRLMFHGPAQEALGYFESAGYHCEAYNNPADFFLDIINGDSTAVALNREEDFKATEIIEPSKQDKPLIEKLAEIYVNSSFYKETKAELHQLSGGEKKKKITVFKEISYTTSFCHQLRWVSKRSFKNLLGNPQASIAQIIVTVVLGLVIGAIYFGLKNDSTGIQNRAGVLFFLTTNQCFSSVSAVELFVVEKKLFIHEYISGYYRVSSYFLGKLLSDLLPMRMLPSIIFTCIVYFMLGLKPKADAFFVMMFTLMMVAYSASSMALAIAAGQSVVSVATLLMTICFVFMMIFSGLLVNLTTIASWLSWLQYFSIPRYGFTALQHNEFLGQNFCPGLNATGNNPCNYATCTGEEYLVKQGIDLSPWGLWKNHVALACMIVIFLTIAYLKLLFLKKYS

Chain of CYP3A4 (P08684 whole entry): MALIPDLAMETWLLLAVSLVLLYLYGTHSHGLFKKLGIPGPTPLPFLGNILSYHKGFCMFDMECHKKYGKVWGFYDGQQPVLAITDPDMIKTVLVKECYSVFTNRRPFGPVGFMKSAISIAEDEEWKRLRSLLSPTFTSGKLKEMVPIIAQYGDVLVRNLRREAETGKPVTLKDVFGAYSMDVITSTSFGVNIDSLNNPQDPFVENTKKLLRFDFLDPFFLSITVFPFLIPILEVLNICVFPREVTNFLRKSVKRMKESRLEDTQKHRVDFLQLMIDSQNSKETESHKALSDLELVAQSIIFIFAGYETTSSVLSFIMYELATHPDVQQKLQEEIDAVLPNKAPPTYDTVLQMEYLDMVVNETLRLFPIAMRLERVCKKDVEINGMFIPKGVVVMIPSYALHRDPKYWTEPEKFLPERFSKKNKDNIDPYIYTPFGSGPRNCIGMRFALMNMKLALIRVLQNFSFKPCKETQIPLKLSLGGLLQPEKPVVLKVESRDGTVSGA

C=CC(=O)N1CCC[C@@H](n2c(=O)n(-c3ccc(Oc4ccccc4)cc3)c3c(N)nccc32)C1 [tolebrutinib, (R)-1-(1-acryloylpiperidin-3-yl)-4-amino-3-(4-phenoxyphenyl)-1H-imidazo[4,5-c]pyridin-2(3H)-one]
decrease of exposure ([1]; potent CYP3A4 and moderate CYP2C8 induction by rifampicin 600 mg once daily for 8 days): 6 fold
increase of AUC exposure ([1]; with potent CYP2C8 inhibitor gemfibrozil 600 mg twice daily for 6 days): 8.4 fold
safety and tolerability profile [2]: satisfactory
increase of area under the curve (AUC) exposure [3]: 1.8 fold
alanine aminotransferase (ALT) ([4]; 30 mg treatment period, Week 8): 105 U/L
alanine aminotransferase (ALT) ([4]; 60 mg treatment period, Week 4, 48 U/L at screening, 50 U/L at baseline): 107 U/L
events of mild microscopic hematuria ([4]; 2 male participants: Week 16 in 30 mg group, Day 1 in 60 mg group, resolved spontaneously): 2 events
cardiac arrhythmia ([4]; ECG monitoring): no clinically significant cardiac arrhythmia was observed
AESIs and PCSAs observed ([4]; Phase 2b): low numbers
correlation between dose administered and number of TEAEs ([4]; Phase 2b): no correlation
new risks identified ([4]; Phase 2b): no new risks were identified
most frequently reported infections (≥3 events total) ([4]; Phase 2b treatment period): upper respiratory tract infection, nasopharyngitis, gastroenteritis, and respiratory tract infection
severe infections ([4]; Phase 2b treatment period): No severe infections occurred
participants with treatment-emergent transient ALT increase >3×ULN ([4]; Phase 2b, 1 at 30 mg, 1 at 60 mg): Two
food effect: increase in AUC0-24 ([4]; fed status, Phase 2b PK data): approximately 2 fold
events of mild petechia ([4]; female participant, Week 8, 30 mg group, resolved spontaneously): One
cytopenia, including thrombocytopenia and neutropenia ([4]; hematologic laboratory results): No clinically significant cytopenia
correlation between treatment response and exposure ([4]; new gadolinium-enhancing T1-hyperintense lesions after 12 weeks of treatment): higher exposure was associated with low numbers of new gadolinium-enhancing T1-hyperintense lesions
time for ALT to return to normal range ([4]; participant of the 30 mg treatment period): ≤ 4 days
time for ALT to return to normal range ([4]; participant of the 60 mg group): 8 weeks
most common events (preferred terms) ([4]; tolebrutinib treatment arms, Phase 2b): headache, upper respiratory tract infection, and nasopharyngitis
tolerability ([5]; ongoing Phase 3 and LTS studies, to date): generally well tolerated
reversibility of DILI / liver enzyme elevation after treatment discontinuation ([5]; ongoing Phase 3 trials): appear reversible
substrate of CYP2C8 isoenzyme (CYP2C8): substrate
substrate of CYP3A4 isoenzyme (CYP3A4): substrate
blood-brain barrier crossing [6]: crosses the blood-brain barrier

C/C(O)=C(\C#N)C(=O)Nc1ccc(C(F)(F)F)cc1 [teriflunomide]
ethinylestradiol and levonorgestrel exposure [7]: Increase
substrate of the efflux transporter BCRP (BCRP): substrate
